Measurements from paper PMC12669672, “Structural insights into selective and dual antagonism of EP2 and EP4 prostaglandin receptors” (The EMBO Journal, 2025).
“And” between values parts separate entries of the source, which are not always exact repeats. Equal values may be shown once.

Experiments:
EP2-D311A = molecular target: T1, EP2-D311A (Homo sapiens, UniProt P43116, D311A); assay: GloSensor cAMP assay, PGE2 induced cAMP signaling (activation); assay type: cell-based
T1 construct: The full-length EP2 or EP4 was cloned into the pcDNA3.1 vector (Invitrogen), incorporating an N-terminal FLAG tag; expressed in transfected cells; host or cells: AD293
Method: (§1) The full-length EP2 or EP4 was cloned into the pcDNA3.1 vector (Invitrogen), incorporating an N-terminal FLAG tag. AD293 cells were seeded in six-well plates containing DMEM supplemented with 10% dialyzed FBS 1 day prior to transfection. Following overnight growth, cells were transfected with a 1:1 ratio of receptor construct and GloSensor22F cAMP biosensor (Promega) plasmids.
(§2) Twenty-four hours post-transfection, the cells were transferred to CO2-independent media containing 2% GloSensor cAMP Reagent (Promega) and distributed into 384-well assay plates at a density of 4000 cells per well in 10 μL. […] The plates were then incubated at 37 °C for an additional hour before luminescence measurements were taken using an EnVision plate reader.
(§3) Data analysis was performed using GraphPad Prism software v8.0.1. A nonlinear regression analysis, employing a sigmoidal dose–response model, was conducted to determine the Emax values and half-maximum inhibitory concentrations (IC50) for each compound tested.

EP2-F273A = molecular target: T2, EP2-F273A (Homo sapiens, UniProt P43116, F273A); assay: as above; assay type: cell-based
T2 construct: The full-length EP2 or EP4 was cloned into the pcDNA3.1 vector (Invitrogen), incorporating an N-terminal FLAG tag; expressed in transfected cells; host or cells: AD293
Method: as §1, §2, §3

EP2 WT = EP2 WT (Homo sapiens, UniProt P43116); assay: as above; assay type: cell-based; design: The full-length EP2 or EP4 was cloned into the pcDNA3.1 vector (Invitrogen), incorporating an N-terminal FLAG tag; expressed in transfected cells; host or cells: AD293
Method: as §1, §2, §3

[1] = system: WT and mutant EP2 receptors; assay: Cell-surface expression, FACS with anti-FLAG FITC antibody; design: species or system human; conditions: single experiments 1st-3rd
Method: Cell-surface expression levels of both wild-type and mutant receptors were assessed using a fluorescence-activated cell sorting (FACS) assay. Briefly described, AD293 cells expressing FLAG-tagged EP2 or EP4 receptors were collected 24 h post-transfection. These cells were then incubated with a mouse anti-FLAG FITC-conjugated antibody (Sigma) at a 1:200 dilution for 2 h at 4 °C in a dark environment. Subsequently, cells were washed with 100 µL of PBS. Surface expression levels were quantified by measuring the fluorescence intensity of FITC using a Guava® easyCyte flow cytometer. Data were normalized relative to the expression levels of the wild-type receptors. These experiments were conducted in triplicate, and the results were expressed as mean ± S.E.M.

[2] = 1 h, PGE2 log([M]) -7, single experiments 1st-3rd, Fig. 2D, read-out: % cAMP activity (normalized to WT)
[3] = single experiments 1st-3rd, Appendix Fig. S6A

T1 sequence (P43116 whole entry D311A): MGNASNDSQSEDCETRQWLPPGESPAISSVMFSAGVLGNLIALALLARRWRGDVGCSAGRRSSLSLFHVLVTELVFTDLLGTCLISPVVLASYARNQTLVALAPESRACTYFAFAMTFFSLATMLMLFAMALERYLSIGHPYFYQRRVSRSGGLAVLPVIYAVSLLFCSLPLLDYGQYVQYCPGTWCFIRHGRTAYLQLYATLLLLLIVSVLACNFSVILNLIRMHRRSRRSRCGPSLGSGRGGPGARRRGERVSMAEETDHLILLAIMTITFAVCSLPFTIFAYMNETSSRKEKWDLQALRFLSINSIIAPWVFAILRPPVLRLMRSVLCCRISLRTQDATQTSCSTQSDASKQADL
EP2 WT, sequence (P43116 whole entry): as the sequence (P43116 whole entry D311A) above, with A311D counted along it
T2 sequence (P43116 whole entry F273A): as the sequence (P43116 whole entry D311A) above, with F273A, A311D counted along it

Molecule | Surface expression ( 100% WT) [1] | also measured
CCCCC[C@H](O)/C=C/[C@H]1[C@H](O)CC(=O)[C@@H]1C/C=C\CCCC(=O)O [PGE2, Prostaglandin E2] | – | remaining activity at 0.1 µM (EP2-D311A; [2]): 91.9%; Emax (EP2-D311A; mean ± S.E.M., n = 3): 92.4 ± 3.9%; PGE2 cAMP activity (∆pIC50 from EP2 WT) (EP2-D311A; [3]): -1.566 and -1.416 and -1.487; remaining activity at 1 µM (EP2-F273A; 1 h, PGE2 log([M]) -6, single experiments 1st-3rd, Fig. 2D, read-out: % cAMP activity (normalized to WT)): 96.2%; remaining activity at 0.1 µM (EP2-F273A; [2]): 32.4%; Emax (EP2-F273A; mean ± S.E.M., n = 3): 117 ± 2.9%; remaining activity at 0.0001 µM (EP2 WT; 1 h, PGE2 log([M]) -10, single experiments 1st-3rd, Fig. 2D, read-out: % cAMP activity (normalized to WT)): 16.5%; Emax (EP2 WT; mean ± S.E.M., n = 3): 100 ± 3.9%; PGE2 cAMP activity (∆pIC50 from EP2 WT) (EP2 WT; [3]): 0.007 and -0.051 and 0.045
EP2 E23A | 92.71% and 100.19% and 95.51% | –
EP2 M116A | 99.63% and 105.23% and 100.56% | –
EP2 S28A | 106.92% and 107.85% and 105.61% | –
EP2 S86A | 89.91% and 90.65% and 110.47% | –
EP2 S305A | 98.88% and 97.38% and 93.83% | –
EP2 S308A | 115.51% and 112.90% and 88.41% | –
EP2 T82A | 106.36% and 116.26% and 103.74% | –
EP2 W186A | 116.07% and 83.36% and 84.86% | –
EP2 WT | 104.67% and 99.81% and 95.51% | –
